# “Also recorded” adds a separate entry of the source.
# How the values were obtained:
# [1] = test system: Mycobacterium tuberculosis H37Ra; assay: Anti-mycobacterial activity (XTT-menadione assay); assay type: cell-based; settings: for inhibition at 100 µg/mL: read-out: % inhibition at 100 μg/ml against M. tuberculosis (footnote c); for antimycobacterial activity against M. tuberculosis (in words): in vitro; for IC90: concentration exhibiting 90% inhibition against growth, H37Ra, 8th day of incubation, read-out: IC90 value determined against M. tuberculosis
# Procedure: All the isolated compounds and whole acetone extract were tested for their in vitro effect against Mycobacterium tuberculosis H37Ra culture maintained in-house.
# M. tuberculosis, H37Ra (ATCC 25177) cells were grown to logarithmic phase (O.D.595˜1.0) in a defined medium (M. pheli medium) under aerobic conditions in a shaker incubator (Thermo Electron Corporation Model 481) maintained at 150 rpm and 37° C. After growth, the culture was sonicated for 2 min using a water bath sonicator. Sonicated cells were used for inoculation in micro plate wells. 250 μl of the culture containing ˜10 5 cells/ml was added to each well of 96 well plates. 2.5 μl of the test samples dissolved in DMSO was added to the wells to attain a final concentration of 100 ug/ml respectively for the preliminary screening. Dose response curve of the active compounds was carried out by making serial dilutions of the test samples. Then, the plate was incubated in a CO2 incubator at 37° C. The plate was taken out on the 8th day of incubation to measure the viable cell counts. The optical density of the culture was measured before addition of XTT at 470 nm which was served as a blank for the MIC calculations. 200 μM XTT was added and incubated for 20 min at 37° C. after shaking for 1 min. After 20 min of incubation, 60 μM menadione was added and incubated at 37° C. for 40 min after mixing of 1 min. Finally, the optical density of the suspension was measured at 470 nm by using microplate reader.
# [2] = test system: THP-1 (Human acute leukemia cells) cell lines; assay: Cytotoxicity studies (MTT assay); assay type: cell-based; settings: for inhibition at 100 µg/mL: Homo sapiens, THP-1, 100 μg/ml, 72 h, MTT, read-out: % Inhibition on Thp-1 cell line at 100 μg/ml
# Procedure: Compounds 3 was tested at IC90 values and also at higher concentration, 100 μg/ml, for their in vitro cytotoxicity against THP-1 (Human acute leukemia cells) cell lines procured from National Cell Repository, India.
# About 10,000 cells were taken per well in 96-well tissue culture plates and treated with compound 3 at IC90 values and also at higher concentration, 100 μg/ml for 72 h. Vehicle control (DMSO, 1%) and positive control (Paclitaxel, 100 μg/ml) were run simultaneously. Cell proliferation was assessed with 10 μl from 5 mg/ml stock solution of tetrazolium salt (MTT) dissolved in cell culture medium and subsequently incubated for additional 1 h at 37° C., 5% of CO2 and 95% humidity in incubator. The violet coloured formazan crystals formed were solubilized in 200 μl of isopropanol and incubated for another 4 h. The optical density was read on a micro plate reader (Spectramax plus384 plate reader, Molecular Devices Inc) at 490 nm filter against a blank prepared from cell-free wells. Absorbance given by cells treated with the carrier DMSO alone was taken as 100% cell growth. All experiments were performed in triplicate, and the quantitative value was expressed as the average±standard deviation.
# [3] = Mycobacterium tuberculosis, H37RA
SMILES,"inhibition at 100 µg/mL [1, 3]",antimycobacterial activity against M. tuberculosis (in words) [1],IC90 ([1]; Mycobacterium tuberculosis),inhibition at 100 µg/mL [2],other results
"C=C[C@@]1(C)CC[C@@]2(O)[C@]3(CC[C@@]4(OO3)C(C)(C)CCC[C@]24C)C1 [Compound 1, pimarane-5,8-peroxide]",42.9%,effective,,,
"C=C[C@@]1(C)CC[C@H]2[C@@](O)(C[C@@H](O)[C@@]3(O)C(C)(C)CCC[C@]23C)C1 [Compound 2, pimarane-triol]",,effective,20 µg/mL,,
"C=C[C@@]1(C)CC[C@@]2(O)[C@@](O)(C[C@@H](O)[C@@]3(O)C(C)(C)CCC[C@]23C)C1 [Compound 3, pimarane-tetrol]",35%,effective,,57.2%,"anti-cancer activity against THP-1 cell lines (in words) ([2]; in vitro): showed anti-cancer activity; also recorded: comparable to that of known standard drug, paclitaxel"
"C=CCc1ccc(O)c(O)c1 [Compound 4, Hydroxychavicol]",,effective,,,"IC50 ([1]; Mycobacterium tuberculosis, H37RA, read-out: IC50 against growth of M. tuberculosis (footnote d)): 12.5 µg/mL"
"NNC(=O)c1ccncc1 [Isoniazid, reference compound]",,,0.05 ± 0.003 µg/mL,,
"CC(=O)O[C@H]1C(=O)[C@@]2(C)[C@H]([C@H](OC(=O)c3ccccc3)[C@]3(O)C[C@H](OC(=O)[C@H](O)[C@@H](NC(=O)c4ccccc4)c4ccccc4)C(C)=C1C3(C)C)[C@]1(OC(C)=O)CO[C@@H]1C[C@@H]2O [Paclitaxel, reference compound]",,,,61%,

# From patent US9024043B2, “Pimarane diterpenes from Anisochilus verticillatus” (Council of Scientific & Industrial Research, priority 2011, dated 2015)
